Laboratory results from patent publication US20170360780A1, “PHARMACEUTICAL COMPOSITION COMPRISING BICYCLIC NITROGEN-CONTAINING AROMATIC HETEROCYCLIC AMIDE COMPOUND AS ACTIVE INGREDIENT” (Astellas Pharma Inc., priority 2014, published 2017).

Key:
[1] = system: KMS-12-BM cells; assay: Test Example 5: combination use with lenalidomide, nude mice bearing KMS-12-BM tumors; type: in vivo, human; settings: 27 days, next day of final administration
Protocol: KMS-12-BM cells derived from human myeloma were prepared at 2.8×10^7 cells/mL of a mixed solution of PBS and Matrigel (registered trademark) in 1:1 ratio, and 0.1 mL was implanted to CAnN.Cg-Foxn1^nu/CrlCrlj mice (4-week-old male nude mice, Charles River Laboratories Japan, Inc.) under the skin on the back (2.8×10^6 cells/head). Dividing into groups by the tumor volume was performed when tumor cells were engrafted and the average tumor volume exceeded approximately 200 mm^3, and 5 mice were set for each group. The test compound dissolved in 6% cyclodextrin aqueous solution was orally administered by the dosage of 2 mg/kg once a day for 27 days. Lenalidomide (MedChemExpress.) was suspended in 6% cyclodextrin aqueous solution and was orally administered by the dosage of 100 mg/kg once a day for 27 days. The dosage of 2 mg/kg of the test compound and 100 mg/kg of lenalidomide were orally administered for a combination administered group once a day, respectively. 6% Cyclodextrin aqueous solution was orally administered for the solvent group (control group) once a day. The body weight and the tumor diameter were measured twice a week, and the anti-tumor effect and the effect on the body weight were examined. For calculation of the tumor volume, the formula below was used.
(§1) [Tumor volume (mm^3)]=[major axis of tumor (mm)]×[minor axis of tumor (mm)]^2×0.5
The inhibition rate of tumor growth and the rate of tumor regression were calculated from the average value of the average tumor volume according to the formula below.
(§2) Inhibition rate of tumor growth (%)=(1−average of tumor volume growth in each group/average of tumor volume growth in control group)×100
(§3) Rate of tumor regression (%)=(1−average tumor volume in each group on measuring day/average tumor volume in each group when dividing groups)×100

[2] = system: KMS-12-BM cells; assay: Test Example 6: combination use with lenalidomide, nude mice bearing KMS-12-BM tumors; type: in vivo, human; settings: for Inhibition rate of tumor growth / Rate of tumor regression: KMS-12-BM, nude mice, 14 days, next day of final administration; for Anti-tumor effect of combination use with lenalidomide versus single administration: mice bearing tumors of human myeloma, combination use of lenalidomide and compound
Protocol: KMS-12-BM cells derived from human myeloma were prepared at 5×10^7 cells/mL of a mixed solution of PBS and Matrigel (registered trademark) in 1:1 ratio, and 0.1 mL was implanted to CAnN.Cg-Foxn1^nu/CrlCrlj mice (4- to 5-week-old male nude mice, Charles River Laboratories Japan, Inc.) under the skin on the back (5×10^6 cells/head). Dividing into groups by the tumor volume was performed when tumor cells were engrafted under the skin and the average tumor volume exceeded approximately 200 mm^3. […] The test compound dissolved in 6% cyclodextrin aqueous solution was orally administered by the dosage of 8 mg/kg or 1 mg/kg once a day for 14 days continuously. Lenalidomide (MedChemExpress.) was suspended in 6% cyclodextrin aqueous solution and was orally administered by the dosage of 100 mg/kg once a day for 14 days continuously. The inhibition rate of tumor growth and the rate of tumor regression in each group on the next day of the final administration were calculated by using the formula below.
as §1, §2
Rate of tumor regression (%)=(1−average tumor volume in each group on measuring day/average tumor volume in each group when starting administration)×100
The inhibition rate of tumor growth and the rate of tumor regression in each group on the next day of the final administration is shown in Table 6.

[3] = system: KMS-12-BM cells; assay: Test Example 4: anti-tumor test on nude mice bearing KMS-12-BM human myeloma tumors; type: in vivo; settings: 17 days, next day of final administration
From the text: (§4) KMS-12-BM cells and RPMI 8226 cells which are derived from human myeloma were respectively purchased from JCRB cell bank (National Institutes of Biochemical Innovation, Health and Nutrition), and ATCC. KMS-12-BM cells were implanted to CAnN.Cg-Foxn1^nu/CrlCrlj mice (4- to 5-week-old male nude mice, Charles River Laboratories Japan, Inc.), and RPMI 8226 cells to CB17/Icr-Prkdc^scid/CrlCrlj mice (4- to 5-week-old male SCID mice, Charles River Laboratories Japan, Inc.), respectively. Each of tumor cells were prepared at 5×10^7 cells/mL of a mixed solution of PBS and Matrigel (registered trademark) in 1:1 ratio, and 0.1 mL was implanted to the mice under the skin on the back (5×10^6 cells/head). Dividing into groups by the tumor volume was performed when tumor cells were engrafted under the skin and the average tumor volume exceeded approximately 150 mm^3 (5 mice for each group). The test compound dissolved in 6% cyclodextrin aqueous solution (Sigma-Aldrich Co.) was orally administered by the dosage of 8 mg/kg or 1 mg/kg once a day. 6% Cyclodextrin aqueous solution was also orally administered for the solvent group (control group) once a day. Oral administration was performed continuously for 17 days for KMS-12-BM cells, and 18 days for RPMI 8226 cells. The inhibition rate of tumor growth and the rate of tumor regression on the next day of the final administration were calculated by using the formula below.
as §1, §2, §3

[4] = system: RPMI 8226 cells; assay: Test Example 4: anti-tumor test on SCID mice bearing RPMI 8226 human myeloma tumors; type: in vivo; settings: RPMI 8226, SCID mice, 18 days, next day of final administration
From the text: as §4, §1, §2, §3

[5] = system: RPMI 8226 cells; assay: Test Example 3: anti-tumor test on SCID mice bearing RPMI 8226 human myeloma tumors; type: in vivo; settings: RPMI 8226, SCID mice, 8 mg/kg oral once a day, 21 days; next day of final administration
Protocol: RPMI 8226 cells (purchased) derived from human myeloma were prepared at 5×10^7 cells/mL of a mixed solution of PBS and Matrigel (registered trademark) in 1:1 ratio, and 0.1 mL was implanted to CB17/Icr-Prkdc^scid/CrlCrlj mice (5-week-old male SCID mice, Charles River Laboratories Japan, Inc.) under the skin on the back (5×10^6 cells/head). Dividing into groups by the tumor volume was performed when tumor cells were engrafted and the average tumor volume exceeded approximately 150 mm^3 (5 mice for each group). The test compound dissolved in 6% cyclodextrin aqueous solution was orally administered by the dosage of 8 mg/kg once a day for 21 days continuously. 6% Cyclodextrin aqueous solution was orally administered for a solvent group (control group) once a day.
(§5) The body weight and the tumor diameter were measured twice a week, and the anti-tumor effect and the effect on the body weight were examined. For calculation of the tumor volume, the formula below was used.
as §1
The inhibition rate of tumor growth and the rate of tumor regression were calculated from the average value of the tumor volume according to the formula below.
Inhibition rate of tumor growth (%)=(1−average of tumor volume growth in each group/average of tumor volume growth in control group)×100 […]

[6] = system: KMS-12-BM cells; assay: Test Example 3: anti-tumor test on nude mice bearing KMS-12-BM human myeloma tumors; type: in vivo; settings: 8 mg/kg oral once a day, 21 days, next day of final administration
Protocol: (§6) KMS-12-BM cells (purchased) or OPM-2 cells (purchased) derived from human myeloma were prepared at 5×10^7 cells/mL of a mixed solution of PBS and Matrigel (registered trademark) in 1:1 ratio, and 0.1 mL was implanted to CAnN.Cg-Foxn1^nu/CrlCrlj mice (4-week-old male nude mice, Charles River Laboratories Japan, Inc.) under the skin on the back (5×10^6 cells/head). Dividing into groups by the tumor volume was performed when tumor cells were engrafted and the average tumor volume exceeded approximately 300 mm^3 (5 mice for each group). The test compound dissolved in 6% cyclodextrin aqueous solution (Sigma-Aldrich Co.) was orally administered by the dosage of 8 mg/kg once a day for 21 days in the test using KMS-12-BM cells, and for 7 days in the test using OPM-2 cells, respectively. 6% Cyclodextrin aqueous solution was orally administered for a solvent group (control group) once a day.
as §5, §1
(§7) The inhibition rate of tumor growth and the rate of tumor regression were calculated from the average value of the tumor volume according to the formula below. […]

[7] = system: OPM-2 cells; assay: Test Example 3: anti-tumor test on nude mice bearing OPM-2 human myeloma tumors; type: in vivo; settings: OPM-2, nude mice, 8 mg/kg oral once a day, 7 days; next day of final administration
Protocol: as §6, §5, §1, §7

[8] = test compound 8 mg/kg + lenalidomide 100 mg/kg oral once a day
[9] = test compound 8 mg/kg + solvent, oral once a day
[10] = test compound 1 mg/kg + lenalidomide 100 mg/kg oral once a day
[11] = test compound 1 mg/kg + solvent, oral once a day

SMILES: Nc1cccc2c1CN(C1CCC(=O)NC1=O)C2=O (stereo not drawn) [Lenalidomide, lenalidomide, reference compound]
- Inhibition rate of tumor growth ([1]; lenalidomide alone 100 mg/kg oral once a day): 53% inhibition
- Inhibition rate of tumor growth ([2]; solvent + lenalidomide 100 mg/kg oral once a day): 21% inhibition

SMILES: COc1cnc(CN2CCC(c3ccc4[nH]c(C(=O)N5CCN(Cc6ccc(C(F)(F)F)cc6)CC5)nc4c3)CC2)cn1 [Compound B1, (5-{1-[(5-methoxypyrazin-2-yl)methyl]piperidin-4-yl}-1H-benzimidazol-2-yl){4-[4-(trifluoromethyl)benzyl]piperazin-1-yl}methanone]
- Rate of tumor regression ([3]; 8 mg/kg oral once a day): 6% regression
- Rate of tumor regression [2, 8]: 42% regression
- Rate of tumor regression [2, 9]: 20% regression
- Rate of tumor regression ([4]; 8 mg/kg oral once a day): 4% regression

SMILES: COc1cnc(CN2CCC(c3ccc4c(c3)cc(C(=O)N3CCN(Cc5ccc(C#N)cc5)CC3)n4C)CC2)cn1 [Compound D1, 4-({4-[(5-{1-[(5-methoxypyrazin-2-yl)methyl]piperidin-4-yl}-1-methyl-1H-indol-2-yl)carbonyl]piperazin-1-yl}methyl)benzonitrile]
- Inhibition rate of tumor growth ([3]; 1 mg/kg oral once a day): 71% inhibition
- Inhibition rate of tumor growth [2, 10]: 74% inhibition
- Inhibition rate of tumor growth [2, 11]: 61% inhibition
- Inhibition rate of tumor growth ([4]; 1 mg/kg oral once a day): 75% inhibition

SMILES: COc1ccc(CN2CCC(c3ccc4[nH]c(C(=O)N5CCN(Cc6ccc(C(F)(F)F)cc6)CC5)nc4c3)CC2)cn1 [Compound A, (5-{1-[(6-methoxypyridin-3-yl)methyl]piperidin-4-yl}-1H-benzimidazol-2-yl) {4-[4-(trifluoromethyl)benzyl]piperazin-1-yl}methanone]
- Anti-tumor effect of combination use with lenalidomide versus single administration [2]: stronger anti-tumor effect than each single administration thereof

SMILES: CCOc1cnc(CN2CCC(c3ccc4cc(C(=O)N5CCN(Cc6ccc(C#N)cc6)CC5)n(C)c4c3)CC2)cn1 [Compound C1, 4-({4-[(6-{1-[(5-ethoxypyrazin-2-yl)methyl]piperidin-4-yl}-1-methyl-1H-indol-2-yl)carbonyl]piperazin-1-yl}methyl)benzonitrile]
- Rate of tumor regression ([3]; 1 mg/kg oral once a day): 68% regression
- Rate of tumor regression [2, 10]: 64% regression
- Rate of tumor regression [2, 11]: 40% regression
- Rate of tumor regression ([4]; 1 mg/kg oral once a day): 25% regression

SMILES: CCOc1cnc(CN2CCC(c3ccc4cc(C(=O)N5CCN(Cc6ccc(C#N)cc6)CC5)n(C)c4c3)CC2)cn1 [Compound C, 4-({4-[(6-{1-[(5-ethoxypyrazin-2-yl)methyl]piperidin-4-yl}-1-methyl-1H-indol-2-yl)carbonyl]piperazin-1-yl}methyl)benzonitrile]
- Anti-tumor effect of combination use with lenalidomide versus single administration [2]: stronger anti-tumor effect than each single administration thereof

SMILES: COc1ccc(CN2CCC(c3ccc4[nH]c(C(=O)N5CCN(Cc6ccc(C(F)(F)F)cc6)CC5)nc4c3)CC2)cn1 [Compound A1, (5-{1-[(6-methoxypyridin-3-yl)methyl]piperidin-4-yl}-1H-benzimidazol-2-yl){4-[4-(trifluoromethyl)benzyl]piperazin-1-yl}methanone]
- Inhibition rate of tumor growth ([3]; 8 mg/kg oral once a day): 99% inhibition
- Rate of tumor regression ([1]; test compound 2 mg/kg + lenalidomide 100 mg/kg oral once a day): 100% regression
- Rate of tumor regression ([1]; test compound alone 2 mg/kg oral once a day): 24% regression
- Rate of tumor regression [2, 8]: 39% regression
- Inhibition rate of tumor growth [2, 9]: 100% inhibition
- Inhibition rate of tumor growth [5]: 97% inhibition
- Inhibition rate of tumor growth ([4]; 8 mg/kg oral once a day): 99% inhibition
- Rate of tumor regression [6]: 100% regression
- Rate of tumor regression [7]: 17% regression

SMILES: COc1cnc(CN2CCC(c3ccc4[nH]c(C(=O)N5CCN(Cc6ccc(C(F)(F)F)cc6)CC5)nc4c3)CC2)cn1 [Compound B, (5-{1-[(5-methoxypyrazin-2-yl)methyl]piperidin-4-yl}-1H-benzimidazol-2-yl){4-[4-(trifluoromethyl)benzyl]piperazin-1-yl}methanone]
- Anti-tumor effect of combination use with lenalidomide versus single administration [2]: stronger anti-tumor effect than each single administration thereof

SMILES: COc1cnc(CN2CCC(c3ccc4c(c3)cc(C(=O)N3CCN(Cc5ccc(C#N)cc5)CC3)n4C)CC2)cn1 [Compound D, 4-({4-[(5-{1-[(5-methoxypyrazin-2-yl)methyl]piperidin-4-yl}-1-methyl-1H-indol-2-yl)carbonyl]piperazin-1-yl}methyl)benzonitrile]
- Anti-tumor effect of combination use with lenalidomide versus single administration [2]: stronger anti-tumor effect than each single administration thereof
